Experimental data as given in patent US20230338294A1, “NOVEL PHARMACEUTICAL FORMULATION FOR C-MET INHIBITOR” (APOLLOMICS INC., priority 2020, published 2023).

Key:
[1] = Two stage 'gastric transfer' non-sink biorelevant dissolution test; type: physicochemical; details: for Cmax FaSSIF: intestinal stage FaSSIF pH 6.8; for AUC35-210 FaSSIF: 35-210 minutes in FaSSIF; for C210: concentration at 210 minutes
Protocol: Biorelevant drug dissolution performance for bulk API and subsequent ASDs was evaluated by Patheon's two stage ‘gastric transfer’ non-sink dissolution test, which simulates pH and bile salt concentrations for both gastric and intestinal exposure in a simple to perform assay. Pre-weighed powder is briefly suspended in media (e.g. by 10 sec vortex mixing with 4.0 mL media) and transferred to a pre-heated (37° C.) volume of 50 mL of 0.1N HCl (aq) pH ˜1.0, without pepsin or bile salts), in a USP Type 2 mini-vessel (100 mL total vessel volume) while stirring (paddles) at 100 rpm. After 30 minutes of gastric pH exposure, an equal volume of PBS buffered, 2× concentrated fasted-state simulated intestinal fluid (FaSSIF) is added to the HCl, resulting in a final pH of 6.8 in FaSSIF (100 mM PBS containing 2.24 mg/mL FaSSIF/FeSSIF/FaSSGF powder (Biorelevant Inc.) in a total volume of 100 mL. Aliquots (1.0 mL) of dissolution media are taken at the following time points: 10, 25, 35, 50, 70, 120 and 210 minutes. The first two aliquots are taken from the simulated gastric media, with the remaining five aliquots from the intestinal media. Aliquots are spun-down (13000 rpm) to pellet out undissolved solids, and the supernatant sampled and further diluted in an appropriate diluent to determine API total drug concentration (e.g. free and colloidal/polymer-bound drug in solution) utilizing a suitable HPLC method. The volume of FaSSIF added is adjusted to account for the sampling volume removed prior to gastric transfer (typically 4×1.0 mL). Initial API concentration in dissolution samples was determined utilizing a HPLC method.
The dissolution performance of the feasibility SDIs and bulk APL-101 was tested in a biorelevant non-sink dissolution experiment as described in EXAMPLE 1. The design of this experiment is to rank order and select lead formulations. […] 20% and 33% active HPMCAS-H and 20% active HPMC-E3LV and PVP-VA based formulations were nominated as the lead formulations.

[2] = Glass transition temperature (Tg) by modulated DSC; type: physicochemical; details: MDSC
Protocol: DSC was performed using a TA Instruments Discovery DSC2500 differential scanning calorimeter equipped with a TA instruments Refrigerated Cooling System 90 operating in either modulated or ramp mode. DSC was used to measure thermodynamic events and characteristics of APL-101 bulk API and subsequent Spray Dried Intermediates (SDIs). Events observed include the glass transition temperature (Tg) defined as the temperature at which amorphous materials transition from a low mobility glassy state to a high mobility rubbery state, cold crystallization (Tc), defined as a crystallization event at a temperature lower than the melt temperature, and melting temperature (Tm). SDI samples were placed in non-hermetic aluminum pans and heated at a constant rate of 2.0° C./min over a 25-200° C. temperature range. The system was purged by nitrogen flow at 50 mL/min to ensure inert atmosphere through the course of measurement. APL-101 was initially analyzed by standard DSC with a heating rate of 10° C./min ramping up to 221° C. […] The resulting amorphous API was analyzed by modulated DSC to determine the glass transition temperature. […]
Thermal properties of bulk APL-101 were measured by DSC. Three API lots were tested, and it was determined that there were two API forms, Forms A and B, both of which are thought to be hydrates. […]

| Cmax FaSSIF ([1]; Table 3, feasibility SDIs) | AUC35-210 FaSSIF ([1]; Table 3) | C210 ([1]; Table 3) | Cmax FaSSIF ([1]; Table 6, prototype SDI) | AUC35-210 FaSSIF ([1]; Table 6) | C210 ([1]; Table 6) | Tg [2] | Tm/Tg ratio ([2]; indicative of moderate physical stability) | dissolution performance ([1]; gastric and intestinal media, in words) | Structure (SMILES) |
| --- | --- | --- | --- | --- | --- | --- | --- | --- | --- |
| 8.9 μgA/mL | 1400 min*μgA/mL | 7.8 μgA/mL | 8.9 μgA/mL | 1400 min*μgA/mL | 7.8 μgA/mL | 89 °C | 1.37 K/K |  | Cn1cc2cc(C(F)(F)c3nnc4ccc(-c5cnn(C6CC6)c5)nn34)c(F)cc2n1 [APL-101 Form B, 6-(1-cyclopropylpyrazol-4-yl)-3-[difluoro-(6-fluoro-2-methylindazol-5-yl)methyl]-[1,2,4]triazolo[4,3-b]pyridazine] |
|  |  |  |  |  |  |  |  | very low dissolution performance | Cn1cc2cc(C(F)(F)c3nnc4ccc(-c5cnn(C6CC6)c5)nn34)c(F)cc2n1 [APL-101, 6-(1-cyclopropylpyrazol-4-yl)-3-[difluoro-(6-fluoro-2-methylindazol-5-yl)methyl]-[1,2,4]triazolo[4,3-b]pyridazine] |
